The results in this text go back to US5047397A, “Linear analogs of atrial natriuretic peptides” (California Biotechnology Inc., priority 1988, dated 1991).

Where a SMILES comes first, the peptide text is derived from it. [ ]: non-standard residue; d: D form. The star is where a group is joined. Phenylacetyl(4-Ph) = O=C(Cc1ccc(-c2ccccc2)cc1)*; Acetyl(1-naphthyloxy) = O=C(COc1cccc2ccccc12)*; Acetyl(2-naphthyloxy) = O=C(COc1ccc2ccccc2c1)*; Acetyl(2-naphthyl) = O=C(Cc1ccc2ccccc2c1)*; Fmoc = O=C(OCC1c2ccccc2-c2ccccc21)*; Aib = CC(C)(N)C(=O)O; Ava = NCCCCC(=O)O; Sar = CNCC(=O)O

The assay concerns the target T1, specific ANP receptor sites on BASM or BAE cells (Bos taurus, UniProt P10730).
T1 construct: specific receptor sites on BASM or BAE cells; endogenous in cells; host or cells: cultured BASM and BAE cells
T1 sequence (P10730 42-537): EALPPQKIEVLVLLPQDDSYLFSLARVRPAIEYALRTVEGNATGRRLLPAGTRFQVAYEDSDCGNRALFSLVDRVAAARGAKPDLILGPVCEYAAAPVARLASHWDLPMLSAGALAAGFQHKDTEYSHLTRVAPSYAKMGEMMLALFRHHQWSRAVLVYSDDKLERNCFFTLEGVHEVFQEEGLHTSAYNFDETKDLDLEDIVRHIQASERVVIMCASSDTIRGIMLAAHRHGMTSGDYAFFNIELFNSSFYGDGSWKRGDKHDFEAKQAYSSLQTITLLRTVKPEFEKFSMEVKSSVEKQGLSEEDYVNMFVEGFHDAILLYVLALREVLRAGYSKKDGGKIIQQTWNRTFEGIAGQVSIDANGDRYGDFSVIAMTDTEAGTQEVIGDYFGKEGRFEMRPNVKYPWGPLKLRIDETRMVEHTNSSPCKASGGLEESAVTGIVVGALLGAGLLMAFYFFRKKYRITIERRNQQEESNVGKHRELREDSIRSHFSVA
Kind of assay: Competitive displacement receptor binding of (125I)-rANP(126-150) on cultured cells. On the set-up: species or system bovine. The note with it: concentration of unlabeled peptide displacing 50% of maximal binding of 0.5 nM (125I)-rANP(126-150); BASM or BAE cells. The source says:
Analogous "competitive displacement" receptor binding assays are considered commonplace in the art for examining specific ligand-receptor interactions.
Assuming these ANP analogs act at one or more ANP receptor sites, then increased receptor affinity should reflect increased biological potency.
Turning to `CC[C@H](C)[C@H](NC(=O)[C@H](CCCNC(=N)N)NC(=O)[C@H](CC(=O)O)NC(=O)[C@@H](NC(=O)[C@H](CCCNC(=N)N)NC(=O)CNC(=O)CNC(=O)Cc1ccc2ccccc2c1)[C@@H](C)CC)C(N)=O` [AP314, (2-NA)--G--G--R--I--D--R--I--NH2] ({Acetyl(2-naphthyl)}-GGRIDRI-NH2), the “Ki(app)” value is recorded as 14.5 nM. In the case of `CC[C@H](C)[C@H](NC(=O)[C@H](CCCNC(=N)N)NC(=O)[C@H](CC(=O)O)NC(=O)[C@@H](NC(=O)[C@H](CCCNC(=N)N)NC(=O)CNC(=O)CNC(=O)COc1cccc2ccccc12)[C@@H](C)CC)C(N)=O` [AP316, (1-NOA)--G--G--R--I--D--R--I--NH2] ({Acetyl(1-naphthyloxy)}-GGRIDRI-NH2) it was 50.4 nM. Regarding `CC[C@H](C)[C@H](NC(=O)[C@H](CCCNC(=N)N)NC(=O)[C@H](CC(=O)O)NC(=O)[C@@H](NC(=O)[C@H](CCCNC(=N)N)NC(=O)CNC(=O)CNC(=O)Cc1ccc(-c2ccccc2)cc1)[C@@H](C)CC)C(N)=O` [AP317, (4-BPA)--G--G--R--I--D--R--I--NH2] ({Phenylacetyl(4-Ph)}-GGRIDRI-NH2), the “Ki(app)” value stood at 123.8 nM. In the case of `CC[C@H](C)[C@H](NC(=O)[C@H](CCCNC(=N)N)NC(=O)[C@H](CC(=O)O)NC(=O)[C@@H](NC(=O)[C@H](CCCNC(=N)N)NC(=O)CNC(=O)CNC(=O)COc1ccc2ccccc2c1)[C@@H](C)CC)C(=O)NCC(=O)N[C@@H](C)C(N)=O` [AP318, (2-NOA)--G--G--R--I--D--R--I--G--A--NH2] ({Acetyl(2-naphthyloxy)}-GGRIDRIGA-NH2) it was 8.7 nM; in that of `CC[C@H](C)[C@H](NC(=O)[C@H](CCCNC(=N)N)NC(=O)[C@H](CC(=O)O)NC(=O)[C@@H](NC(=O)[C@H](CCCNC(=N)N)NC(=O)CNC(=O)CNC(=O)COc1ccc2ccccc2c1)[C@@H](C)CC)C(N)=O` [AP319, (2-NOA)--G--G--R--I--D--R--I--NH2] ({Acetyl(2-naphthyloxy)}-GGRIDRI-NH2), 6.0 nM. The result for `CC[C@H](C)[C@H](NC(=O)[C@H](CCCNC(=N)N)NC(=O)[C@H](CC(=O)O)NC(=O)[C@@H](NC(=O)[C@H](CCCNC(=N)N)NC(=O)CN(C)C(=O)CNC(=O)Cc1ccc2ccccc2c1)[C@@H](C)CC)C(N)=O` [AP320, (2-NA)--G--(Sar)--R--I--D--R--I--NH2] ({Acetyl(2-naphthyl)}-G[Sar]RIDRI-NH2) reads 47.4 nM; that for `CC[C@H](C)[C@H](NC(=O)[C@H](CCCNC(=N)N)NC(=O)[C@H](CC(=O)O)NC(=O)[C@@H](NC(=O)[C@H](CCCNC(=N)N)NC(=O)C(C)(C)NC(=O)CNC(=O)Cc1ccc2ccccc2c1)[C@@H](C)CC)C(N)=O` [AP321, (2-NA)--G--(Aib)--R--I--D--R--I--NH2] ({Acetyl(2-naphthyl)}-G[Aib]RIDRI-NH2), 33.0 nM; that for `CC[C@H](C)[C@H](NC(=O)[C@H](CCCNC(=N)N)NC(=O)[C@H](CC(=O)O)NC(=O)[C@@H](NC(=O)[C@H](CCCNC(=N)N)NC(=O)CNC(=O)[C@@H](C)NC(=O)COc1ccc2ccccc2c1)[C@@H](C)CC)C(N)=O` [AP322, (2-NOA)--A^ --G--R--I--D--R--I--NH2] ({Acetyl(2-naphthyloxy)}-[dA]GRIDRI-NH2), above 100 nM. Regarding `CC[C@H](C)[C@H](NC(=O)[C@H](CCCNC(=N)N)NC(=O)[C@H](CC(=O)O)NC(=O)[C@@H](NC(=O)[C@H](CCCNC(=N)N)NC(=O)CCCCNC(=O)OCC1c2ccccc2-c2ccccc21)[C@@H](C)CC)C(N)=O` [AP323, (FMOC)--NH(CH2)4 CO--R--I--D--R--I--NH2] ({Fmoc-Ava}-RIDRI-NH2), the “Ki(app)” value is given as 162.6 nM. The result for `CC[C@H](C)[C@H](NC(=O)[C@H](CCCNC(=N)N)NC(=O)[C@H](CC(=O)O)NC(=O)[C@@H](NC(=O)[C@H](CCCNC(=N)N)NC(=O)CCCCNC(=O)Cc1ccc2ccccc2c1)[C@@H](C)CC)C(N)=O` [AP324, (2-NA)--NH(CH2)4 CO--R--I--D--R--I--NH2] ({Acetyl(2-naphthyl)-Ava}-RIDRI-NH2) reads 48.5 nM.
